Reference: patent US7199286B2, “Plant-derived novel pathogen and SAR-induction chemical induced promoters, and fragments thereof” (Syngenta Participations AG, priority 1999, dated 2007)

How the values were obtained:
Arabidopsis PR1 promoter = experiment: GUS florescence assay of promoter::GUS plants after SA application, Arabidopsis PR1 promoter; format: in vivo; details: 5 mM SA spray
Excerpt: A binary promoter::reporter plasmid (pNOV2374) for Arabidopsis transformation was constructed. The regulatory/promoter sequence was fused to the GUS reporter gene (Jefferson et al. (1987) EMBO J 6: 3901-3907) by recombination using […] Technology according to the manufacturer's protocol as described in the Instruction Manual (LifeTechnologies, Rockville, Md.). The construct was then transformed into Agrobacterium tumefaciens strains by electroporation. pNOV2374 is a binary vector with a VS1 origin of replication, a copy of the Agrobacterium virg gene in the backbone, and a Basta® resistance selectable marker cassette between the left and right border sequences of the T-DNA. The Basta® selectable marker cassette comprises the Agrobacterium tumefaciens manopine synthase promoter (AtMas) (Barker et al., Plant Mol. Biol. 2, 335-350 (1983)) operably linked to the gene encoding Basta® resistance (i.e., the “BAR” gene, phosphinothricin acetyl transferase) (White et al., Nucl Acids Res 18: 1062 (1990)) and the 35S terminator. The AtMas promoter, the BAR coding sequence, and the 35S terminator are located at nt 4211 to nt 4679, nt 4680 to nt 5228, and nt 5263 to nt 5488, respectively, of pNOV2374. The vector contains […] recombination components, which were introduced into the binary vector backbone by ligating a blunt-ended cassette containing attR sites, ccdB, and a cholramphenicol resistance marker using the […] Vector Conversion System (LifeTechnologies, Rockville, Md.). The […] cassette was located between nt 126 and 1818 of pNOV2374. The promoter cassettes were inserted through an LR recombination reaction whereby the DNA sequence of pNOV2374 between nt 126 and nt 1818 were removed and replaced with the promoter of interest flanked by att sequences. […] The GIG gene (SEQ ID NO:29) contains the ST-LS1 intron from Solanum tuberosum at nt 385 to nt 576 of GUS (obtained from Dr. Stanton […], Purdue University, and described in Narasimhulu, et al. (1996) Plant Cell 8: 873-886.). The orientation of the selectable marker and promoter-reporter cassettes in the binary vector construct was as follows: For the purpose of comparing promoter activity, additional constructs were produced with the known Arabidopsis PR1 (SEQ ID NO:30) and SMAS (SEQ ID NO:31) promoters (see Plant J. 16 (2) 223-233 (1998) and Plant Mol. Biol. 20 (2) 219-233 (1992), respectively) operatively linked to the GIG gene (SEQ ID NO:29) and the […]. […] The treatment was applied as a fine mist to the leaves. […] For quantitative analysis of promoter activity following induction treatments or in various Arabidopsis tissues and organs, GUS expression is measured florometrically. Tissue samples were harvested and ground in ice cold GUS extraction buffer (50 mM Na2HPO4 pH 7.0, 5 mM DTT, 1 mM Na2EDTA, 0.1% TritonX100, 0.1% sarcosyl). Ground samples were spun in a microfuge at 10,000 rpm for 15 minutes at 4° C. Following centrifugation, the supernatant was removed for the GUS assay and for a protein concentration determination. To measure GUS activity, the plant extract was assayed in GUS assay buffer (50 mM Na2HPO4 pH 7.0, 5 mM DTT, 1 mM Na2EDTA, 0.1% TritonX100, 0.1% sarcosyl, 1 mM 4-Methylumbelliferyl-beta-D-glucuronic acid dihydrate (MUG)), pre-warmed to 37° C. Reactions were incubated, and 100 uL aliquots were removed at 10 minute intervals over 30 minutes to stop the reaction by adding the 100 uL aliquots to tubes containing 900 uL of 2% Na2CO3. The stopped reactions were then read on a Tecan Spectroflourometer at 365 nm excitation and 455 emission wavelengths. Protein concentrations were determined using the BCA assay following the manufacturer's protocol. GUS activity is expressed as pmol MU/mg protein/min.

NI16 RNA = experiment: Induction of NI16 mRNA by SA and BTH spray, RNA blot hybridization; format: in vivo, Arabidopsis; details: WS-O plants sprayed with 5 mM SA or 300 μm BTH
Experimental: RNA is prepared from 4 week old Wassilewskija (WS—O) plants, that are either sprayed with water, a 5 mM solution of sodium salicylate (SA), or a 300 μm solution of benzo-(1,2,3)-thiadiazole-7-carbothioic acid S-methyl ester (BTH). […] RNA extractions and RNA blot hybridizations are performed as described previously by Ausubel et al. (1987). NI16 RNA is induced 5–10 fold within 15 minutes of SA or BTH induction and reaches a peak of approximately 50 fold induction within 2 hours of SA treatment and 25 fold induction with BTH treatment.

O=C(O)c1ccccc1O [SA, salicylic acid]
GUS Activity Induced by SA (Arabidopsis PR1 promoter; 2 h): 57.7 pmol/mg protein/min
GUS activity Fold-change relative to T0 (uninduced) (Arabidopsis PR1 promoter; 2 h): 3.4 fold
GUS Activity Induced by SA (Arabidopsis PR1 promoter; 4 h): 254.7 pmol/mg protein/min
GUS activity Fold-change relative to T0 (uninduced) (Arabidopsis PR1 promoter; 4 h): 15.2 fold
GUS Activity Induced by SA (Arabidopsis PR1 promoter; 8 h): 206.5 pmol/mg protein/min
GUS Activity Induced by SA (Arabidopsis PR1 promoter; 24 h): 393.1 pmol/mg protein/min
GUS activity Fold-change relative to T0 (uninduced) (Arabidopsis PR1 promoter; 24 h): 23.4 fold
time NI16 transcript remains highly induced after treatment (NI16 RNA): up to 24 hours
NI16 RNA peak induction (NI16 RNA; peak, within 2 hours of SA treatment): approximately 50 fold
